Assay [1] deals with T1, human Werner helicase (Homo sapiens, UniProt Q14191, L1074F).
T1 construct: Uniprot Q14191, amino acids 517-1235 with L1074F point mutation; TEV-cleavable 8xHis tag (C, cleaved yes); made in house; host or cells: Sf9 insect cells (baculovirus)
Put plainly: WRN (BV08) ADP-Glo Assay. The following applies: WRN-BV08 (517-1235 L1074F) 0.15 nM, 0.1 nM DNA duplex, ATP, 15 min preincubation, 60 min at 25° C, pH 7.5; read-out: ADP-Glo_hWRN_IC50. The assay is classed as biochemical. The text has this:
Example 2: WRN (BV08) ADP-Glo Assay Protocol
Bovine skin gelatin (BSG), dimethyl sulfoxide (DMSO), Pluronic F-127 and tris(2-carboxyethyl)phosphine hydrochloride solution (TCEP) were purchased from Sigma-Aldrich (St. Louis, MO) at the highest level of purity possible. Bicine buffer solution was purchased from Alfa Aesar (Tewksbury, MA) and compound NSC-617145 was purchased from Tocris (Minneapolis, MN). DNA duplex was synthesized at BGI (Shenzhen, China) and was composed of strand 1 with the sequence 5′-[…]-3′ (SEQ ID NO.: 1) and strand 2 with the sequence 5′-[…]-3′ (SEQ ID NO.: 2). DNA strands were annealed by heating to 95° C. for 5 minutes followed by slow cooling to room temperature. Compounds in 100% DMSO (0.1 μl) were spotted into a 384-well white polystyrene Optiplate-384 (Perkin Elmer; Waltham, MA) assay plate using a LabCyte Echo 550 (Agilent; Santa Clara, CA). DMSO (0.1 μl) was added to columns 12, rows A-H and column 24, rows I-P for the maximum signal control. Compound NSC-617145 (0.1 μl) was added to columns 12, rows I-P and 24, rows A-H for the minimum signal control (100% inhibition). Compounds/DMSO were preincubated for 15 minutes at 25° C. with 5 μl 2×WRN (BV08), prepared as described below, in assay buffer containing 20 mM Bicine (pH=7.5), 1 mM MgCl2, 10 mM KCl, 0.1% Pluronic F-127, 0.005% BSG, 1 mM TCEP. The reaction was initiated by the addition of 5 μl 2× substrate mixture in assay buffer and incubated for 60 minutes at 25° C. The final concentrations of the assay components were 0.15 nM WRN, 5 µM ATP, and 0.1 nM DNA duplex. The final DMSO concentration was 1% and the reference compound concentration (NSC-617145) used for the minimal signal control was 20 μM. The reaction was stopped by the addition of the ADP-Glo Kit components (Promega; Madison, WI) as directed and the relative luminescence units (RLU) were read on an Envision 2104 (Perkin Elmer; Waltham, MA).
Where RLU=relative luminescence units, sample=signal in sample well, and MIN and MAX are the respective minimum and maximum signal controls.
Y=Bottom+(Top−Bottom)/(1+(IC50/X)^Hill Slope)
Where top and bottom are normally allowed to float but may be fixed at 100 or 0 respectively in a 3-parameter fit. Y is the % inhibition and X is the compound concentration.
Molecular Biology and virus production. The DNA encoding human Werner helicase (Uniprot Q14191, amino acids 517-1235 with L1074F point mutation) was generated with codon-optimization for E. coli expression and subcloned into the pFastBac vector with a TEV cleavable 8×His tag (WRN—BV08). The baculovirus from the expression plasmid WRN—BV08 was generated from transfection and amplification following the manufacturer's instructions.
Sf9 cells grown in SF900II media were infected with 1:200 WRN—BV08 P2 virus and incubated for protein expression for 72 h at 27° C. The WRN protein was purified using the following protocol. The cell pellets were thawed and resuspended in buffer A (50 mM Tris, pH 7.5, 500 mM NaCl, 1 mM TCEP, 10% Glycerol) supplemented with 0.5% CHAPS, 1 mM [COMPOUND LEFT OUT], 1 μg/ml Leupeptin, 1 μg/ml Pepstatin, and the Pierce Universal Nuclease and cocktail tablet. Cleared lysates were loaded onto a Ni Sepharose™ excel column and washed with buffer A and bound protein was eluted with buffer A supplemented with 300 mM imidazole. The eluted protein was dialyzed against buffer A and digested by His-tagged TEV (1:5 ratio) overnight at 4° C. […]

The target in assay [2] is T2, p21 (Homo sapiens).
T2 construct: p21 in-cell western after 24 h, GAPDH normalised
T2 sequence (Q14191 whole entry): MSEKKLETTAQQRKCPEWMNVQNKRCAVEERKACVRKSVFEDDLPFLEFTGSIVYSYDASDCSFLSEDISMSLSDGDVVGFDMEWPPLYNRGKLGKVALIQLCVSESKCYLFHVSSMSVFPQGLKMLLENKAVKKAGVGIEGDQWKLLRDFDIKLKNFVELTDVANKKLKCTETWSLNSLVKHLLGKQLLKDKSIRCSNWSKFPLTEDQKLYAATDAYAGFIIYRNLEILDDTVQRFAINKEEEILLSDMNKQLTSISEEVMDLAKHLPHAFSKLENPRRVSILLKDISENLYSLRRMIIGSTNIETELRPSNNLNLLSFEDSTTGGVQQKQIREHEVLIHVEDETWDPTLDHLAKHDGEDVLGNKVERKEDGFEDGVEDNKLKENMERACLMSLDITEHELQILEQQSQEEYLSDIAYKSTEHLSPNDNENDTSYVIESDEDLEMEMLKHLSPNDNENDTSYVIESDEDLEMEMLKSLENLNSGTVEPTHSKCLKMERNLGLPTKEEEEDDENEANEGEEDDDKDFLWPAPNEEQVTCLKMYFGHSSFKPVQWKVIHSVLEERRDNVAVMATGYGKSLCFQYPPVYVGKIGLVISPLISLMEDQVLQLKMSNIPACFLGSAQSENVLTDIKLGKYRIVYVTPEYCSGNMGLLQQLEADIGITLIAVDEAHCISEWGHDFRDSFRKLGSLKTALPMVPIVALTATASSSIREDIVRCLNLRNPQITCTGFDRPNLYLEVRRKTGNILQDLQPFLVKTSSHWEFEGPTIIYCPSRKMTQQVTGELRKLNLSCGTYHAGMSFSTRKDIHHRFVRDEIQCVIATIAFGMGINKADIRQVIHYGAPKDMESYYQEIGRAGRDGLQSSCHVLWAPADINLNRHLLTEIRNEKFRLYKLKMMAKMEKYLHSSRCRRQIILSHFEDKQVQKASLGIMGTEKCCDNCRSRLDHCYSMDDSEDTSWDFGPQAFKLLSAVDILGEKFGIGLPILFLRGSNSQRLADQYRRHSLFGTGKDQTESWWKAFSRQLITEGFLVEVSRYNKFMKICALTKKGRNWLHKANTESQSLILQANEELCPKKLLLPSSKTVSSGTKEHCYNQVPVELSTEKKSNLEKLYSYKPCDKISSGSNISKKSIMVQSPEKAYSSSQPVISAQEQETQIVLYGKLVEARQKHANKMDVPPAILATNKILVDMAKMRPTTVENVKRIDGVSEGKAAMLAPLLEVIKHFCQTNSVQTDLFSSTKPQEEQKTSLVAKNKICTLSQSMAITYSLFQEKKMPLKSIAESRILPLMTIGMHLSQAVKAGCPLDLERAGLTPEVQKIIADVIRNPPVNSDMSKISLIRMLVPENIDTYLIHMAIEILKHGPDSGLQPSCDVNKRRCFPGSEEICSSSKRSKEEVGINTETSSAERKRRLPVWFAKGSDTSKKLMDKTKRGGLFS
Put plainly: Effect on p21 induction in HCT116 cells. The format is cell-based. As to conditions: HCT116 colon carcinoma cells, 24 h, p21/GAPDH ratio, percent activation vs internal reference WRN inhibitor; read-out: P21_EC50. Here is the method:
Example 3: Method for Determining Effect on p21 Induction in Cells
The colon carcinoma cell line HCT116 was obtained from ATCC and cultured in growth medium consisting of Mccoy's 5A Medium (Gibco 16600108) supplemented with 10% FBS (Transgene FS201-02) and 100 units/mL penicillin-streptomycin (Gibco 15140122) and maintained at 37° C. under 5% CO2. On the day of seeding, 2,000 cells in 30 μL of culture media were plated per well to Poly-D-Lysine 384 Well Black Clear Plates (Biocoat 356663) and incubated overnight at 37° C. under 5% CO2. The following day, compounds were serially diluted in DMSO for a total of 11 test concentrations. The typical starting concentration of cpds was 10 μM with 2-fold dilutions. Next, 150 nL of diluted compound was added in duplicate to the assay plate, using an Echo 655 (Labcyte). The plate was centrifuged at 500 RPM for 1 min and then incubated at 37° C. under 5% CO2 for 24 h. After 24 h, medium was removed, and cells were fixed by adding 40 μL of 4% paraformaldehyde solution to each well and incubated for 20 min at room temperature. The plate was then washed 4 times with 100 μL per well of wash buffer (PBS with 0.1% Tween-20) using a microplate washer. Next, 30 μL of ice-cold methanol was added to each well and the plate was incubated at −20° C. for 10 min. The plate was washed 4 times with 100 μL per well of wash buffer by a microplate washer, then 30 μL per well of blocking buffer ((Intercept PBS blocking buffer (LI-COR 927-70001) with 0.05% Tween-20)) was added and the plate was incubated at room temperature with shaking for 2h. Next, to each test well, 20 μL of primary antibody solution ((p21 Waf1/CIP (12D1) Rabbit mAb (Cell Signaling Technologies 2947) diluted 1:1000 and GAPDH (D4C6R) Mouse mAb (Cell Signaling Technologies 97166) diluted 1:2000 in blocking buffer)) was added and the plate was placed at 4° C., overnight. The following day, the plate was washed 5 times with 100 μL per well of wash buffer using a microplate washer for 5 min. 20 μL per well of secondary antibody ((IRDye 680CW Goat anti-Mouse IgG (H+L) (LI-COR 926-68070) diluted 1:2000 in Blocking Buffer and IRDye 800CW Goat anti-Rabbit IgG (H+L) (LI-COR 926-32211) diluted 1:2000 in Blocking Buffer)) was then added and the plate was stored for 2 h in the dark at room temperature with shaking. The plate was then washed 4 times with 100 μL per well of wash buffer again using a microplate washer. Finally, the p21 signal and the GAPDH signal were quantified using a LI-COR Odyssey CLx Imager machine reading at 800 nm and 700 nm, respectively. Each plate contained DMSO control (low control) and an internal reference WRN inhibitor (high control) respectively. For quantitation, the 800 nm/700 nm ratio was calculated for each well to give fold p21 induction and then percent activation for each compound well was calculated as follows ((100×(ratio cpd well−ratio low control)/(ratio high control−ratio low control)). EC50 values for each compound was generated after non-linear regression curve fitting using commercially available software.

The values below come from US20260308173A1, “OXAZOLOPYRIDIN-7(4H)-ONE WRN INHIBITORS” (NIMBUS WADJET, INC., priority 2023, published 2026).

T1 sequence (Q14191 with tags, fused parts or gaps L1074F): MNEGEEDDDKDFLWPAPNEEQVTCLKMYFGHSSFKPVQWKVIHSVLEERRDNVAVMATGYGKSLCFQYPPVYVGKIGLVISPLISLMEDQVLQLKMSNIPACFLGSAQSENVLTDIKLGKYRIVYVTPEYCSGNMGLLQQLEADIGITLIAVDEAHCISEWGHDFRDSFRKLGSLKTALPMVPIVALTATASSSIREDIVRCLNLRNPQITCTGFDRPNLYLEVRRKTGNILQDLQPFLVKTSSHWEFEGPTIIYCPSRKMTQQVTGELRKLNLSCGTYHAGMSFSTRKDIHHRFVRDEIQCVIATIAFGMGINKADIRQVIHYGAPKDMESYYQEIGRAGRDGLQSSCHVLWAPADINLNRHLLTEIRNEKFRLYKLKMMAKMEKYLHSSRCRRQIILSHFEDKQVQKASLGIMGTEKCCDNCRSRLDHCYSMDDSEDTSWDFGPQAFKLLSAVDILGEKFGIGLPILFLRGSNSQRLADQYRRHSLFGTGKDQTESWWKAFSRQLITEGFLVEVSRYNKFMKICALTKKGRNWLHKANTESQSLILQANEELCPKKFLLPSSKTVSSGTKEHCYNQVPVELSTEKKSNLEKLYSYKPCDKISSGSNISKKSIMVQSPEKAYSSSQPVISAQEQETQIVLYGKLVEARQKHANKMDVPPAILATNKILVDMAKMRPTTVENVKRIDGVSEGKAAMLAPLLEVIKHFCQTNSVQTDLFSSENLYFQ

Regarding `CCc1c(N2CCN(C(=O)c3ncnc(C)c3O)CC2)c(=O)c2nc(-c3ccnc(OC)c3)oc2n1CC(=O)Nc1ccc(C(F)(F)F)cc1Cl` [1-2], the IC50 in assay [1] was not above 5 nM.

For the compound `CCc1c(N2CCN(C(=O)c3ncnc(C)c3O)CC2)c(=O)c2oc(-c3ccnc(OC)c3)nc2n1CC(=O)NC12CC(C(F)(F)F)(C1)C2` [1-3], the IC50 in assay [1] is 5 to 50 nM.

Take `CCc1c(N2CCN(C(=O)c3ncnc(C)c3O)CC2)c(=O)c2oc(-c3ccnc(OC)c3)nc2n1CC(=O)Nc1ccc(C(F)(F)F)cc1Cl` [I-1, N-(2-chloro-4-(trifluoromethyl)phenyl)-2-(5-ethyl-6-(4-(5-hydroxy-6-methylpyrimidine-4-carbonyl)piperazin-1-y1)-2-(2-methoxypyridin-4-yl)-7-oxooxazolo[4,5-b]pyridin-4(7H)-yl)acetamide]: the IC50 in assay [1] was not above 5 nM. Moreover, the EC50 in assay [2] was not above 500 nM.

On to `CCc1c(N2CCN(C(=O)c3ncnc(C)c3O)CC2)c(=O)c2nc(-c3ccnc(OC)c3)oc2n1CC(=O)Nc1ccc(C(F)(F)F)cc1Cl` [I-2, N-(2-chloro-4-(trifluoromethyl)phenyl)-2-(5-ethyl-6-(4-(5-hydroxy-6-methylpyrimidine-4-carbonyl)piperazin-1-yl)-2-(2-methoxypyridin-4-yl)-7-oxooxazolo[5,4-b]pyridin-4(7H)-yl)acetamide], for which, in assay [2], the EC50 is not above 500 nM.

For the compound `CCc1c(N2CCN(C(=O)c3ncnc(C)c3O)CC2)c(=O)c2oc(-c3ccnc(OC)c3)nc2n1CC(=O)NC12CC(C(F)(F)F)(C1)C2` [I-3, 2-(5-ethyl-6-(4-(5-hydroxy-6-methylpyrimidine-4-carbonyl)piperazin-1-yl)-2-(2-methoxypyridin-4-yl)-7-oxooxazolo[4,5-b]pyridin-4(7H)-yl)-N-(3-(trifluoromethyl)bicyclo[1.1.1]pentan-1-yl)acetamide], the EC50 in assay [2] was 2000 to 5000 nM.

Turning to `CCc1c(N2CCN(C(=O)c3ncnc(C)c3O)CC2)c(=O)c2nc(-c3ccnc(OC)c3)oc2n1CC(=O)NC12CC(C(F)(F)F)(C1)C2` [I-4, 2-(5-ethyl-6-(4-(5-hydroxy-6-methylpyrimidine-4-carbonyl)piperazin-1-yl)-2-(2-methoxypyridin-4-yl)-7-oxooxazolo[5,4-b]pyridin-4(7H)-y1)-N-(3-(trifluoromethyl)bicyclo[1.1.1]pentan-1-yl)acetamide], the IC50 in assay [1] is 5 to 50 nM. Also, the EC50 in assay [2] was more than 5000 nM.

For `CCc1c(N2CCN(C(=O)c3c(O)ccc4ncoc34)CC2)c(=O)c2oc(-c3ccnc(OC)c3)nc2n1CC(=O)Nc1ccc(C(F)(F)F)cc1Cl` [I-5, N-(2-chloro-4-(trifluoromethyl)phenyl)-2-(5-ethyl-6-(4-(6-hydroxybenzo[d]oxazole-7-carbonyl)piperazin-1-y1)-2-(2-methoxypyridin-4-yl)-7-oxooxazolo[4,5-b]pyridin-4(7H)-y1)acetamide], the IC50 in assay [1] was not above 5 nM. Also, the EC50 in assay [2] was not above 500 nM.
